According to patent US20120295805A1, “SOLID PHASE METHODS FOR THE[…] KINETIC QUANTIFICATION OF INTERACTIONS BETWEEN NUCLEIC ACIDS AND SMALL MOLECULES” (priority 2011, published 2012):

Assays:
[1] = system: 10mer DNA sequence AGAATTGAGT possessing a high-affinity site (-AATT-); test: Electrochemically-determined surface melt curves (solid phase DNA denaturation, cyclic voltammetry of ferrocene-labeled strand); type: binding; details: 2×10^−6 M netropsin
Text: (B) Shape comparison of solution and surface melting transitions.
In this example, one strand was immobilized while the electroactively-labeled complementary strand was present in solution. Immobilization was realized through a single thiolate (—S—Au) linkage between DNA and the gold electrode support, with mercaptohexanol passivation used to block the remaining surface. (86) Hybridization occurred to the extent governed by thermodynamics under the imposed conditions of temperature and drug concentration. The extent of hybridization was tracked as a function of temperature with cyclic voltammetry, which allows determination of the coverage of double-stranded molecules from the total charge derived from their ferrocene labels. (87-88)
A number of noteworthy conclusions follow from FIG. 5A. The cooling and heating cycles superpose, confirming closeness to equilibrium at the tested scan rate of 0.4° C./min.
This is expected since netropsin prefers to bind to double-stranded DNA. (89) The free energy of binding (i.e. affinity) determined from the surface approach (FIG. 5A) is in reasonable agreement with solution methods. […]

[2] = system: DNA; details: reported for 0.016 M Na+ in ref. 38, corrected to 0.8 M Na+ using ref. 76; cited from earlier work
[3] = system: MB 5′ Fluorescein-CAATTCCTCT12GAATTG-BHQ1-C7-Amine 3′ with high affinity AATT site in the stem; test: TIRF-imaged melt curves of surface-immobilized molecular beacons (MB microarray); type: binding; details: 2 μM netropsin, 0.1 M pH 7 phosphate buffer, average of 9 spots
Procedure: The field of view is 4 mm diameter. (B) Melting curves of surface-immobilized MBs without and with 2 μM netropsin in 0.1 M phosphate buffer. […] (C) Melting curves under same conditions as in (B), but for MBs in solution. MBs were assumed closed once data with and without netropsin converged at lower temperatures.
BHQ1 is Black Hole Quencher 1, and the 3′ amine is used for surface immobilization via the stem. Repetition with the same MBs printed on commercial aldehyde microarray slides produced a 4-fold gain with transition observed at a similar temperature, FIG. 2A. […] (56-65) In such studies, opening of the MBs is driven by hybridization at the loop section, as opposed to thermal denaturation as in the data of FIG. 2. Efforts to improve the hybridization-induced gains included optimization of pH and salt composition (60-61, 63), insertion of spacers to distance MBs from the solid support, (63) changes in the chemical nature of the solid support (60-61), and isolation of MBs on the surface down to the single-molecule limit. (62) These approaches, however, have not solved the decreased gain, although effective workarounds have been found for hybridization applications (e.g. use of the solid support itself to provide better quenching (66-70)). Surface-immobilized SPs have also produced approximately 4-fold gains upon hybridization. (64) […]

What does the source list for `Cn1cc(NC(=O)c2cc(NC(=O)CN=C(N)N)cn2C)cc1C(=O)NCCC(=N)N` [netropsin]?
Effect on denaturation transition (electrochemical melt curve) ([1]; 0.5 M pH 7 sodium phosphate buffer, scan rate 0.4° C./min): shifts denaturation to higher temperatures; ΔΔG°25C (increment of ΔG° of melting attributed to the drug; free energy of binding) ([1]; surface approach, 0.5 M pH 7 sodium phosphate buffer (0.8 M Na+), calculated at 25° C. from fitted ΔH° and ΔS°): -8.9 kcal/mol; ΔΔG°25C based on solution methods [2]: -9.2 kcal/mol; Effect on melt transition (TM) of surface-immobilized MBs [3]: TM shifting to higher temperatures
